# Measured values reported in patent US20230257396A1, “MACROCYCLES AND THEIR USE” (BLOSSOMHILL THERAPEUTICS, INC., priority 2020, published 2023).
# How the values were obtained:
# Assay in all cases: KINOMEscan kinase binding assay (Eurofins/DiscoveRx), % Ctrl
# kinases [1] = biological target: T1, kinases (Homo sapiens, UniProt P00519, Q252H)
# T1 construct: purchased Eurofins/DiscoveRx; host or cells: E. coli BL21-derived host (T7 phage display) for most kinases; HEK-293 for the rest
# Procedure, shortened: (§1)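 Read-out is qPCR of kinase eluted from ligand-coated streptavidin beads after 1 h room-temperature competition with test compound. Values are % Ctrl at the tested concentration, lower meaning tighter binding.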
# kinases [2] = biological target: T2, kinases (Homo sapiens, UniProt P00533)
# T2 construct: purchased Eurofins/DiscoveRx; host or cells: E. coli BL21-derived host (T7 phage display) for most kinases; HEK-293 for the rest
# Procedure, shortened: as §1
# kinases [3] = biological target: T3, kinases (Homo sapiens, UniProt P10721)
# T3 construct: purchased Eurofins/DiscoveRx; host or cells: E. coli BL21-derived host (T7 phage display) for most kinases; HEK-293 for the rest
# Procedure, shortened: as §1
# kinases [4] = biological target: T4, kinases (Homo sapiens, UniProt P35916)
# T4 construct: purchased Eurofins/DiscoveRx; host or cells: E. coli BL21-derived host (T7 phage display) for most kinases; HEK-293 for the rest
# Procedure, shortened: as §1
# kinases [5] = biological target: T5, kinases (Homo sapiens, UniProt P36888, R834Q)
# T5 construct: purchased Eurofins/DiscoveRx; host or cells: E. coli BL21-derived host (T7 phage display) for most kinases; HEK-293 for the rest
# T5 sequence (P36888 27-993 R834Q): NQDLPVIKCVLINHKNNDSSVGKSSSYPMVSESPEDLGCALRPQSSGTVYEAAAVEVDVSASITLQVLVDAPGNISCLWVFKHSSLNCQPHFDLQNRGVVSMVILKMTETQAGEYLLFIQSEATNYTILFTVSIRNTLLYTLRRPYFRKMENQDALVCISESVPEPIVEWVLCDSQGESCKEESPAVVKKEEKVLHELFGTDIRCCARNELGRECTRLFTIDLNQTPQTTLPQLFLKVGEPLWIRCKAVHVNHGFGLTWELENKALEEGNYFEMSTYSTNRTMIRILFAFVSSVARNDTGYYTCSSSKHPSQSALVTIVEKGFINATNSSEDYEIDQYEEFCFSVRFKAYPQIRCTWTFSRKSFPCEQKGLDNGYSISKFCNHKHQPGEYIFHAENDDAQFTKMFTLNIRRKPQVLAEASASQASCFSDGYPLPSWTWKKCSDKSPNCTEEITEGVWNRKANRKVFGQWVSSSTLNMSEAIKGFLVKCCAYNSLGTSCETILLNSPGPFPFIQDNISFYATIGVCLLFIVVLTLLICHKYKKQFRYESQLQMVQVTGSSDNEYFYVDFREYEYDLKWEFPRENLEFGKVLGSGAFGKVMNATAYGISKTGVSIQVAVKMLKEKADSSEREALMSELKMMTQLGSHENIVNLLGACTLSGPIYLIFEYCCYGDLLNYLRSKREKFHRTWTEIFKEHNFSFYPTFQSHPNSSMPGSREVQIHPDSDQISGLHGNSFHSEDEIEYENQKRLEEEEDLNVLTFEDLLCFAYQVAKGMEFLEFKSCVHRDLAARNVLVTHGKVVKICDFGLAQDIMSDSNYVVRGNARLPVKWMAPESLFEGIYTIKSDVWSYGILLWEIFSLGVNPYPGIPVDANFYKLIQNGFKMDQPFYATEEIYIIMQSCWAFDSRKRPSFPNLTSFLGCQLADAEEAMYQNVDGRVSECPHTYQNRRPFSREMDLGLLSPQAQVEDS
# Procedure, shortened: as §1
# kinases [6] = test system: kinases
# Procedure, shortened: as §1
# [7] = 1 μM; ABL1(Q252H)-nonphosphorylated
# [8] = 1 μM; ABL1(Q252H)-phosphorylated
# [9] = 1 μM; EGFR(L747-E749del, A750P)
# [10] = 1 μM; EGFR(L747-S752del, P753S)
# T2 sequence (P00533 25-1210): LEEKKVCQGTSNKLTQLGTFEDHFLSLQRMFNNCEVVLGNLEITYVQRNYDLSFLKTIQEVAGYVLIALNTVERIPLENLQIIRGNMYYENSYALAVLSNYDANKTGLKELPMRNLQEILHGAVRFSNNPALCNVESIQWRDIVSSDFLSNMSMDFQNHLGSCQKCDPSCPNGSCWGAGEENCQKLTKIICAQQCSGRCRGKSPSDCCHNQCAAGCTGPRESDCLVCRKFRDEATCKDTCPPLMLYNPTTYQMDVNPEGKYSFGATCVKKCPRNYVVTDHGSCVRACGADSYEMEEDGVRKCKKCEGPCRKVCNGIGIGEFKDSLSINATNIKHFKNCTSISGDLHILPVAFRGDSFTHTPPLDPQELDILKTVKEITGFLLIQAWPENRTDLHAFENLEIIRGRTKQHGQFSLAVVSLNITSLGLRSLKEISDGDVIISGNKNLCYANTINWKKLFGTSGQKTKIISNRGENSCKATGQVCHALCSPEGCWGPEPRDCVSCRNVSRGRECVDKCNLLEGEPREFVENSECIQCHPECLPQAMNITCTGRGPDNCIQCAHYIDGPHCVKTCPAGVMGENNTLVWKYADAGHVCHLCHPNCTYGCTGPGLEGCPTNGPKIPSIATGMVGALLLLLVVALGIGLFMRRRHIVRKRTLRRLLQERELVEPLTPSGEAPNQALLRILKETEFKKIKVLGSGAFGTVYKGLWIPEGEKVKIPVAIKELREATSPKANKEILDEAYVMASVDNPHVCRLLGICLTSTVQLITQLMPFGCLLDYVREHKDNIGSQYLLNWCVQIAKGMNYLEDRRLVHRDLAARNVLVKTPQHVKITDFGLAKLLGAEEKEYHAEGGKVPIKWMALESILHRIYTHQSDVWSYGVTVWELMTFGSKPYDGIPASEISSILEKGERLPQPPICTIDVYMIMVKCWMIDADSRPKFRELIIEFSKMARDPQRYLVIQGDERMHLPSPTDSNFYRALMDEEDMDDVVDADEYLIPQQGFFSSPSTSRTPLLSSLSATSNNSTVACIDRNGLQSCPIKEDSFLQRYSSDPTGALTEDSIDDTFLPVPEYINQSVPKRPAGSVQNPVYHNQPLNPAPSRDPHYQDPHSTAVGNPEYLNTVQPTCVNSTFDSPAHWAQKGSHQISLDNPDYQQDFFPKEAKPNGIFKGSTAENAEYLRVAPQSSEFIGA
# T3 sequence (P10721 26-976): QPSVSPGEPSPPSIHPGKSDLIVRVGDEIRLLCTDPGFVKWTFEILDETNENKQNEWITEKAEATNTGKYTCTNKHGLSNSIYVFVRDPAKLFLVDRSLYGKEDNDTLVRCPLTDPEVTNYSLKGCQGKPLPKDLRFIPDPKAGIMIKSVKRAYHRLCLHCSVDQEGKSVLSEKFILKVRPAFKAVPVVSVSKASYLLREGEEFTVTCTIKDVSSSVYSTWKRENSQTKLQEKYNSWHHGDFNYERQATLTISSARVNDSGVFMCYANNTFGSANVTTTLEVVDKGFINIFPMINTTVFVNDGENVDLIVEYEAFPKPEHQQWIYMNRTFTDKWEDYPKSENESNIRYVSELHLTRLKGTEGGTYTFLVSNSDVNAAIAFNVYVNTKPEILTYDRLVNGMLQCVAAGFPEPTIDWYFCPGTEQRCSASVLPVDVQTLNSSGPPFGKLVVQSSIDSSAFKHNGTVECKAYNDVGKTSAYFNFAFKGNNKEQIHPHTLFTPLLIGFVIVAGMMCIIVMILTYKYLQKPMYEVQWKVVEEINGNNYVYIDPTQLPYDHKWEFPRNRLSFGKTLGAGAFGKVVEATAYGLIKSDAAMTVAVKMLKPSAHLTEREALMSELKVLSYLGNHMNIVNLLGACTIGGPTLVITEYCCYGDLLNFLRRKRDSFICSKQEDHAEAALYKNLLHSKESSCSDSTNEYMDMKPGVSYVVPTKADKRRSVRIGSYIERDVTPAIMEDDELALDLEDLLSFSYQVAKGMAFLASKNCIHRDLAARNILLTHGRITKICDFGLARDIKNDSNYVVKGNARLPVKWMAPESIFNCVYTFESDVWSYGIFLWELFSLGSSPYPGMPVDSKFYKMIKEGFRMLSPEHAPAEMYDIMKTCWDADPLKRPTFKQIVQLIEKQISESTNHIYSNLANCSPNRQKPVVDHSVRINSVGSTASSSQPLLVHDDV
# T4 sequence (P35916 25-1363): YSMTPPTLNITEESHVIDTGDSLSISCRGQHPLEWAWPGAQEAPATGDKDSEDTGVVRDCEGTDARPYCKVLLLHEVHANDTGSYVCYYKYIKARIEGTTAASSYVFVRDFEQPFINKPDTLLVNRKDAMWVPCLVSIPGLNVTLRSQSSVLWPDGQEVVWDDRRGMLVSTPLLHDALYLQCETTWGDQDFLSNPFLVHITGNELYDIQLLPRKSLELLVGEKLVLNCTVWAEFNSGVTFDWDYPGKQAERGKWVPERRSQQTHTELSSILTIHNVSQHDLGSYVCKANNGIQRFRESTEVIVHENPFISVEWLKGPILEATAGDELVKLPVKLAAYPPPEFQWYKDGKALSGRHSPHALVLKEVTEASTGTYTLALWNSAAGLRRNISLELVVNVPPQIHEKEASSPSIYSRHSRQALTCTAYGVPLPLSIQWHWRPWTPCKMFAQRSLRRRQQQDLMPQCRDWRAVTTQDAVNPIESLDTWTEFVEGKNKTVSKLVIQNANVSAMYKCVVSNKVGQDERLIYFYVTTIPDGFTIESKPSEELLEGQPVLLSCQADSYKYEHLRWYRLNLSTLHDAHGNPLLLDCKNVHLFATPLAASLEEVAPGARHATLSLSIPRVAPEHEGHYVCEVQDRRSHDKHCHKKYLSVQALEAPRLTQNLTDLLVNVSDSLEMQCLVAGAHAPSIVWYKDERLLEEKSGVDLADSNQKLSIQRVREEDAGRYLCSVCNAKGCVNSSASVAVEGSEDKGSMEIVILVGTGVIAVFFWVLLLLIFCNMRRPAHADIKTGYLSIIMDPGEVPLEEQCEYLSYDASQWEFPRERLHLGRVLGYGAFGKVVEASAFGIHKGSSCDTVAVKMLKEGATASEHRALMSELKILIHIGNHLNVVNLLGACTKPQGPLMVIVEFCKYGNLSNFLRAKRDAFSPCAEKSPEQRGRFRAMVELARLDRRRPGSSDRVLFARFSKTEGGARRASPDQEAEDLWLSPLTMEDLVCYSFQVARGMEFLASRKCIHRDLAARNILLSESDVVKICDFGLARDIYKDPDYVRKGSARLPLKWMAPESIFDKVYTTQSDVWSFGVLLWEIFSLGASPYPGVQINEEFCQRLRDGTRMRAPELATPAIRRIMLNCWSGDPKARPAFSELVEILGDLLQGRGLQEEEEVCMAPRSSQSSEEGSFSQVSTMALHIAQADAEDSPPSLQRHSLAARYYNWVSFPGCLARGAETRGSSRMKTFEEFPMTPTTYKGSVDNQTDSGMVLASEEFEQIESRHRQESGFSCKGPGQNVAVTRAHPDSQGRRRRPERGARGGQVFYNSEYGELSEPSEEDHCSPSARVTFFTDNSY
SMILES,"% Ctrl, ABL1(Q252H)-nonphosphorylated (kinases [1]; [7]) [% Ctrl]","% Ctrl, ABL1(Q252H)-phosphorylated (kinases [1]; [8]) [% Ctrl]","% Ctrl, EGFR (kinases [2]; 1 μM; EGFR) [% Ctrl]","% Ctrl, KIT (kinases [3]; 1 μM; KIT) [% Ctrl]","% Ctrl, KIT-autoinhibited (kinases [3]; 1 μM; KIT-autoinhibited) [% Ctrl]","% Ctrl, FLT4 (kinases [4]; 1 μM; FLT4) [% Ctrl]","% Ctrl, FLT3(R834Q) (kinases [5]; 1 μM; FLT3(R834Q)) [% Ctrl]","% Ctrl, EGFR(L747-E749del, A750P) (kinases [6]; [9]) [% Ctrl]","% Ctrl, EGFR(L747-S752del, P753S) (kinases [6]; [10]) [% Ctrl]","% Ctrl, EGFR(L747-T751del, Sins) (kinases [6]; 1 μM; EGFR(L747-T751del, Sins)) [% Ctrl]","% Ctrl, FLT3(ITD) (kinases [6]; 1 μM; FLT3(ITD)) [% Ctrl]","% Ctrl, FLT3(ITD, D835V) (kinases [6]; 1 μM; FLT3(ITD, D835V)) [% Ctrl]","% Ctrl, FLT3(ITD, F691L) (kinases [6]; 1 μM; FLT3(ITD, F691L)) [% Ctrl]",other results
"Cc1cc2c([nH]1)/C=C1\C(=O)Nc3ccc(cc31)-c1ccnn1CCOCCNC2=O [Ex.39, [19a(20)Z]-2-methyl-6,7,9,10-tetrahydro-1H-15,17-(ethanediylidene)pyrazolo[1,5-d]dipyrrolo[3,4-h:2′,3′-k][1,4,14]oxadiazacyclohexadecine-4,19(5H,18H)-dione]",84,93,77,90,86,98,93,68,66,60,89,17,27,
"Cc1cc2c([nH]1)/C=C1\C(=O)Nc3ccc(nc31)-c1ccccc1OCCCNC2=O [Ex.22, [3a(4)Z]-6-methyl-9,10,11,12-tetrahydro-1,18-(ethanediylidene)dipyrrolo[3,2-g:3′,4′-j][1,5,12]benzoxadiazacyclopentadecine-3,8(2H,5H)-dione]",87,74,64,100,100,92,97,73,95,81,100,71,100,
"Cc1cc2c([nH]1)/C=C1\C(=O)Nc3ccc(cc31)O[C@@H](C)COCCN(C)C2=O [Ex. 92, [10S,16a(17)Z]-2,5,10-trimethyl-6,7,9,10-tetrahydro-1H-12,14-(ethanediylidene)dipyrrolo[3,2-i:3′,4′-l][1,4,7]dioxazacyclopentadecine-4,16(5H,15H)-dione]",0,34,98,91,100,75,75,91,55,98,45,8.3,9.2,
"Cc1nn(C)c2c1-c1ccc3c(c1)/C(=C/c1[nH]ccc1C(=O)N(C)CCCO2)C(=O)N3 [Ex. 150, [3a(4)Z]-9,14,16-trimethyl-10,11,13,14-tetrahydro-2H-1,17-(ethanediylidene)pyrazolo[4,3-m]dipyrrolo[3,2-f:3′,4′-i][1,4]oxazacyclopentadecine-3,8(5H,9H)-dione]",,,,,,,,,,,,,,"% Ctrl, ABL1(Q252H)-nonphosphorylated (kinases [1]; target ABL1(Q252H)-nonphosphorylated; 1 μM): 93 % Ctrl; % Ctrl, ABL1(Q252H)-phosphorylated (kinases [1]; target ABL1(Q252H)-phosphorylated; 1 μM): 100 % Ctrl; % Ctrl, EGFR (kinases [2]; target EGFR; 1 μM): 61 % Ctrl; % Ctrl, KIT-autoinhibited (kinases [3]; target KIT-autoinhibited; 1 μM): 100 % Ctrl; % Ctrl, KIT (kinases [3]; target KIT; 1 μM): 97 % Ctrl; % Ctrl, FLT4 (kinases [4]; target FLT4; 1 μM): 95 % Ctrl; % Ctrl, FLT3(R834Q) (kinases [5]; target FLT3(R834Q); 1 μM): 69 % Ctrl; % Ctrl, EGFR(L747-E749del, A750P) (kinases [6]; target EGFR(L747-E749del, A750P); 1 μM): 94 % Ctrl; % Ctrl, EGFR(L747-S752del, P753S) (kinases [6]; target EGFR(L747-S752del, P753S); 1 μM): 100 % Ctrl; % Ctrl, EGFR(L747-T751del, Sins) (kinases [6]; target EGFR(L747-T751del, Sins); 1 μM): 94 % Ctrl; % Ctrl, FLT3(ITD) (kinases [6]; target FLT3(ITD); 1 μM): 72 % Ctrl; % Ctrl, FLT3(ITD, D835V) (kinases [6]; target FLT3(ITD, D835V); 1 μM): 35 % Ctrl; % Ctrl, FLT3(ITD, F691L) (kinases [6]; target FLT3(ITD, F691L); 1 μM): 59 % Ctrl"
"Cc1cc2c([nH]1)/C=C1\C(=O)Nc3cnc(cc31)-c1cnn(C)c1CN(C)CCN(C)C2=O [Ex. 172, [3a(4)Z]-6,9,12,14-tetramethyl-9,10,11,12,13,14-hexahydro-17,1-(azenometheno)pyrazolo[4,3-m]dipyrrolo[3,2-f:3′,4′-i][1,4]diazacyclopentadecine-3,8(2H,5H)-dione]",,,,,,,,,,,,,,"% Ctrl, ABL1(Q252H)-nonphosphorylated (kinases [1]; 1 μM; target ABL1(Q252H)-nonphosphorylated): 0.3 % Ctrl; % Ctrl, ABL1(Q252H)-phosphorylated (kinases [1]; 1 μM; target ABL1(Q252H)-phosphorylated): 0.1 % Ctrl; % Ctrl, EGFR (kinases [2]; 1 μM; target EGFR): 36 % Ctrl; % Ctrl, KIT (kinases [3]; 1 μM; target KIT): 68 % Ctrl; % Ctrl, KIT-autoinhibited (kinases [3]; 1 μM; target KIT-autoinhibited): 100 % Ctrl; % Ctrl, FLT4 (kinases [4]; 1 μM; target FLT4): 1.7 % Ctrl; % Ctrl, FLT3(R834Q) (kinases [5]; 1 μM; target FLT3(R834Q)): 16 % Ctrl; % Ctrl, EGFR(L747-E749del, A750P) (kinases [6]; 1 μM; target EGFR(L747-E749del, A750P)): 62 % Ctrl; % Ctrl, EGFR(L747-S752del, P753S) (kinases [6]; 1 μM; target EGFR(L747-S752del, P753S)): 52 % Ctrl; % Ctrl, EGFR(L747-T751del, Sins) (kinases [6]; 1 μM; target EGFR(L747-T751del, Sins)): 43 % Ctrl; % Ctrl, FLT3(ITD) (kinases [6]; 1 μM; target FLT3(ITD)): 1.1 % Ctrl; % Ctrl, FLT3(ITD, D835V) (kinases [6]; 1 μM; target FLT3(ITD, D835V)): 0.3 % Ctrl; % Ctrl, FLT3(ITD, F691L) (kinases [6]; 1 μM; target FLT3(ITD, F691L)): 0.3 % Ctrl"
"Cc1cc2c([nH]1)/C=C1\C(=O)Nc3cc(Cl)c(cc31)OCCO[C@@H](C(=O)N[C@@H]1CCNC1)CN(C)C2=O [Ex. 136, [7R,16a(17)Z]-19-chloro-2,5-dimethyl-4,16-dioxo-N-[(3R)-pyrrolidin-3-yl]-4,5,6,7,9,10,15,16-octahydro-1H-12,14-(ethanediylidene)dipyrrolo[3,2-i:3′,4′-l][1,4,7]dioxazacyclopentadecine-7-carboxamide]",24,14,98,49,83,100,50,80,82,94,23,2.8,5.7,
